Reference: patent US20240300932A1, “N-PHENYLIMINE DERIVATIVE AND PREPARATION METHOD AND USE THEREOF” (Guizhou University, priority 2023, published 2024)

Columns and labels:
Assay in all cases: Post-emergence herbicidal activity test (stem and leaf spray, pot culture)
Assay type in all cases: in vivo
Conditions in all cases: 3 weeks after spraying
[1] = tested on: Echinochloa crusgalli
Summary of the method: (§1)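 Greenhouse pot-grown weeds (loam, pH 7) sprayed post-emergence at 2- to 3-leaf stage with acetone/Tween 80 formulation plus 1.5 liters/ha methyl oleate, at 10, 5 and 2.5 g/mu. Fresh-weight growth control rated 3 weeks later on 0–5 grade scale.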

[2] = tested on: Amaranthus retroflexus
Summary of the method: as §1

[3] = tested on: Portulaca oleracea
Summary of the method: as §1

[4] = tested on: Abutilon theophrasti
Summary of the method: as §1

[5] = tested on: Setaria viridis
Summary of the method: as §1

[6] = tested on: Trifoliumre pensL.
Summary of the method: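 Rates of 10, 5 and 2.5 g/mu were applied in a single spray-tower treatment to 2–3-leaf plants, thinned to 10 per pot. Formulation: acetone solution, Tween 80, 1.5 L/ha methyl oleate synergist. Weed response assessed after 3 further greenhouse weeks; mean of three experiments.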

| Structure (SMILES) | Post-emergence herbicidal activity, E. crusgalli (grade) ([1]; dosage 2.5 g/mu) | Post-emergence herbicidal activity, E. crusgalli (grade) ([1]; dosage 5 g/mu) | Post-emergence herbicidal activity, E. crusgalli (grade) ([1]; dosage 10 g/mu) | Post-emergence herbicidal activity, A. retroflexus (grade) ([2]; dosage 2.5 g/mu) | Post-emergence herbicidal activity, A. retroflexus (grade) ([2]; dosage 5 g/mu) | Post-emergence herbicidal activity, A. retroflexus (grade) ([2]; dosage 10 g/mu) | Post-emergence herbicidal activity, P. oleracea (grade) ([3]; dosage 2.5 g/mu) | Post-emergence herbicidal activity, P. oleracea (grade) ([3]; dosage 5 g/mu) | Post-emergence herbicidal activity, P. oleracea (grade) ([3]; dosage 10 g/mu) | Post-emergence herbicidal activity, A. theophrasti (grade) ([4]; dosage 2.5 g/mu) | Post-emergence herbicidal activity, A. theophrasti (grade) ([4]; dosage 5 g/mu) | Post-emergence herbicidal activity, A. theophrasti (grade) ([4]; dosage 10 g/mu) | Post-emergence herbicidal activity, S. viridis (grade) ([5]; dosage 2.5 g/mu) | Post-emergence herbicidal activity, S. viridis (grade) ([5]; dosage 5 g/mu) | Post-emergence herbicidal activity, S. viridis (grade) ([5]; dosage 10 g/mu) | Post-emergence herbicidal activity, Trifoliumre pensL. (grade) ([6]; dosage 2.5 g/mu) | Post-emergence herbicidal activity, Trifoliumre pensL. (grade) ([6]; dosage 5 g/mu) | Post-emergence herbicidal activity, Trifoliumre pensL. (grade) ([6]; dosage 10 g/mu) |
| --- | --- | --- | --- | --- | --- | --- | --- | --- | --- | --- | --- | --- | --- | --- | --- | --- | --- | --- |
| O=C1C2=C(CCCC2)C(=O)N1c1cc(OCc2nnc(-c3cccc(I)c3)o2)c(Cl)cc1F [Compound B11] | 1 (Grade 1: the growth control rate is greater than or equal to 5% and less than 20%) | 2 (Grade 2: the growth control rate is greater than or equal to 20% and less than 40%) | 3 (Grade 3: the growth control rate is greater than or equal to 40% and less than 60%) | 4 (Grade 4: the growth control rate is greater than or equal to 60% and less than 85%) | 5 (Grade 5: the growth control rate is greater than or equal to 85%) | 5 (Grade 5: the growth control rate is greater than or equal to 85%) | 5 (Grade 5: the growth control rate is greater than or equal to 85%) | 5 (Grade 5: the growth control rate is greater than or equal to 85%) | 5 (Grade 5: the growth control rate is greater than or equal to 85%) | 4 (Grade 4: the growth control rate is greater than or equal to 60% and less than 85%) | 5 (Grade 5: the growth control rate is greater than or equal to 85%) | 5 (Grade 5: the growth control rate is greater than or equal to 85%) | 2 (Grade 2: the growth control rate is greater than or equal to 20% and less than 40%) | 3 (Grade 3: the growth control rate is greater than or equal to 40% and less than 60%) | 4 (Grade 4: the growth control rate is greater than or equal to 60% and less than 85%) | 5 (Grade 5: the growth control rate is greater than or equal to 85%) | 5 (Grade 5: the growth control rate is greater than or equal to 85%) | 5 (Grade 5: the growth control rate is greater than or equal to 85%) |
| O=C1C2=C(CCCC2)C(=O)N1c1cc(OCc2nnc(-c3cccc([N+](=O)[O-])c3)o2)c(Cl)cc1F [Compound B12] | 1 (Grade 1: the growth control rate is greater than or equal to 5% and less than 20%) | 2 (Grade 2: the growth control rate is greater than or equal to 20% and less than 40%) | 3 (Grade 3: the growth control rate is greater than or equal to 40% and less than 60%) | 5 (Grade 5: the growth control rate is greater than or equal to 85%) | 5 (Grade 5: the growth control rate is greater than or equal to 85%) | 5 (Grade 5: the growth control rate is greater than or equal to 85%) | 5 (Grade 5: the growth control rate is greater than or equal to 85%) | 5 (Grade 5: the growth control rate is greater than or equal to 85%) | 5 (Grade 5: the growth control rate is greater than or equal to 85%) | 5 (Grade 5: the growth control rate is greater than or equal to 85%) | 5 (Grade 5: the growth control rate is greater than or equal to 85%) | 5 (Grade 5: the growth control rate is greater than or equal to 85%) | 2 (Grade 2: the growth control rate is greater than or equal to 20% and less than 40%) | 3 (Grade 3: the growth control rate is greater than or equal to 40% and less than 60%) | 4 (Grade 4: the growth control rate is greater than or equal to 60% and less than 85%) | 5 (Grade 5: the growth control rate is greater than or equal to 85%) | 5 (Grade 5: the growth control rate is greater than or equal to 85%) | 5 (Grade 5: the growth control rate is greater than or equal to 85%) |
| O=C1C2=C(CCCC2)C(=O)N1c1cc(OCc2nnc(-c3ccc(F)cc3)o2)c(Cl)cc1F [Compound B14] | 1 (Grade 1: the growth control rate is greater than or equal to 5% and less than 20%) | 2 (Grade 2: the growth control rate is greater than or equal to 20% and less than 40%) | 3 (Grade 3: the growth control rate is greater than or equal to 40% and less than 60%) | 5 (Grade 5: the growth control rate is greater than or equal to 85%) | 5 (Grade 5: the growth control rate is greater than or equal to 85%) | 5 (Grade 5: the growth control rate is greater than or equal to 85%) | 4 (Grade 4: the growth control rate is greater than or equal to 60% and less than 85%) | 5 (Grade 5: the growth control rate is greater than or equal to 85%) | 5 (Grade 5: the growth control rate is greater than or equal to 85%) | 4 (Grade 4: the growth control rate is greater than or equal to 60% and less than 85%) | 5 (Grade 5: the growth control rate is greater than or equal to 85%) | 5 (Grade 5: the growth control rate is greater than or equal to 85%) | 2 (Grade 2: the growth control rate is greater than or equal to 20% and less than 40%) | 3 (Grade 3: the growth control rate is greater than or equal to 40% and less than 60%) | 4 (Grade 4: the growth control rate is greater than or equal to 60% and less than 85%) | 5 (Grade 5: the growth control rate is greater than or equal to 85%) | 5 (Grade 5: the growth control rate is greater than or equal to 85%) | 5 (Grade 5: the growth control rate is greater than or equal to 85%) |
| O=C1C2=C(CCCC2)C(=O)N1c1cc(OCc2nnc(-c3ccc(Cl)cc3)o2)c(Cl)cc1F [Compound B15] | 1 (Grade 1: the growth control rate is greater than or equal to 5% and less than 20%) | 2 (Grade 2: the growth control rate is greater than or equal to 20% and less than 40%) | 3 (Grade 3: the growth control rate is greater than or equal to 40% and less than 60%) | 5 (Grade 5: the growth control rate is greater than or equal to 85%) | 5 (Grade 5: the growth control rate is greater than or equal to 85%) | 5 (Grade 5: the growth control rate is greater than or equal to 85%) | 5 (Grade 5: the growth control rate is greater than or equal to 85%) | 5 (Grade 5: the growth control rate is greater than or equal to 85%) | 5 (Grade 5: the growth control rate is greater than or equal to 85%) | 5 (Grade 5: the growth control rate is greater than or equal to 85%) | 5 (Grade 5: the growth control rate is greater than or equal to 85%) | 5 (Grade 5: the growth control rate is greater than or equal to 85%) | 2 (Grade 2: the growth control rate is greater than or equal to 20% and less than 40%) | 3 (Grade 3: the growth control rate is greater than or equal to 40% and less than 60%) | 4 (Grade 4: the growth control rate is greater than or equal to 60% and less than 85%) | 5 (Grade 5: the growth control rate is greater than or equal to 85%) | 5 (Grade 5: the growth control rate is greater than or equal to 85%) | 5 (Grade 5: the growth control rate is greater than or equal to 85%) |
